Experimental data published in patent US20100105722A1, “Substituted 4,5,6,7-tetrahydrothienopyridines as KCNQ2/3 Modulators” (GRUENENTHAL GmbH, priority 2008, published 2010).

Tests used:
[1] = system: formalin-induced nociceptive behavior; assay: Formalin test in the rat (phase II, chronic pain component); type: in vivo; details: for Formalin test rat i.v. % reduction in nociceptive behavior: phase II, Table 3
Experimental: Formalin Test in the Rat The formalin test (Dubuisson, D. and Dennis, S. G., 1977, Pain, 4, 161-174) represents a model for both acute and chronic pain. In the studies presented here, the chronic pain component (phase II of the formalin test; time period 21-27 min after formalin administration) was evaluated. A biphase nociceptive reaction is induced in freely mobile test animals by a single formalin injection into the dorsal side of a rear paw, the reaction being detected by observation of three clearly distinguishable behavior patterns. Formalin is administered subcutaneously into the dorsal side of the right rear paw of each animal in a volume of 50 μl and a concentration of 5%. The vehicle and the test substances are administered intravenously 5 min, or orally 30 min, before the formalin injection. The specific changes in behavior, such as lifting and shaking of the paw, weight displacement of the animal and biting and licking reactions, are observed and recorded continuously up to 60 min after the formalin administration. […] Rats of the strain Sprague Dawley (Janvier, Belgium) are used as the animal strain. The weight of the animals is 180-200 g; the size of the group was n=10.

hKCNQ2/3 [2] = biological target: T1, hKCNQ2/3 (Homo sapiens, UniProt O43525+O43526); assay: Fluorescence assay using a voltage sensitive dye (fluorimetry); type: cell-based; details: for Emax at 10 µM: relative to retigabine = 100%
T1 construct: expressed in transfected cells; host or cells: CHO-K1
Experimental: Fluorescence Assay using a Voltage Sensitive Dye
Human CHO-K1 cells expressing KCNQ2/3 channels are cultivated adherently at 37° C., 5% CO2 and 95% humidity in cell culture bottles (e.g. 80 cm^2 TC flasks, Nunc) with DMEM-high glucose (Sigma Aldrich, D7777) including 10% FCS (PAN Biotech, e.g. 3302-P270521) or alternatively MEM Alpha Medium (1×, liquid, Invitrogen, #22571), 10% fetal calf serum (FCS) (Invitrogen, #10270-106, heat-inactivated) and the necessary selection antibiotics.
Before being sown out for the measurements, the cells are washed with a 1×DPBS buffer without Ca^2+/Mg^2+ (e.g. Invitrogen, #14190-094) and detached from the bottom of the culture vessel by means of Accutase (PAA Laboratories, #L11-007) (incubation with Accutase for 15 min at 37° C.). The cell count then present is determined using a CASY™ cell counter (TCC model, Schärfe System) in order subsequently to apply, depending on the density optimization for the individual cell line, 20,000-30,000 cells/well/100 μl of the described nutrient medium to 96-well measuring plates of the Corning™ CellBIND™ type (Flat Clear Bottom Black Polystyrene Microplates, #3340). Incubation is then carried out for one hour at room temperature, without gassing or adjusting the humidity, followed by incubation for 24 hours at 37° C., 5% CO2 and 95% humidity.
The voltage-sensitive fluorescent dye from the Membrane Potential Assay Kit (Red™ Bulk format part R8123 for FLIPR, MDS Analytical Technologies™) is prepared by dissolving the contents of a vessel Membrane Potential Assay Kit Red Component A in 200 ml of extracellular buffer (ES buffer, 120 mM NaCl, 1 mM KCl, 10 mM HEPES, 2 mM CaCl2, 2 mM MgCl2, 10 mM glucose; pH 7.4). After removal of the nutrient medium, the cells are washed with 200 μl of ES buffer, then covered with a layer of 100 μl of the dye solution prepared above and incubated for 45 min at room temperature with the exclusion of light.
The fluorescence measurements are carried out with a BMG Labtech FLUOstar™, BMG Labtech NOVOstar™ or BMG Labtech POLARstar™ instrument (525 nm excitation, 560 nm emission, Bottom Read mode). After incubation of the dye, 50 μl of the test substances in the desired concentrations, or 50 μl of ES buffer for control purposes, are introduced into separate cavities of the measuring plate and incubated for 30 min at room temperature while being shielded from light. The fluorescence intensity of the dye is then measured for 5 min and the fluorescence value F1 of each well is thus determined at a given, constant time. 15 μl of a […] KCl solution ([…]) are then added to each well. The change in fluorescence is subsequently measured until all the relevant measured values have been obtained (mainly 5-30 min). At a given time after KCl application, a fluorescence value F2 is determined, in this case at the time of the fluorescence peak.
For calculation, the fluorescence intensity F2 is compared with the fluorescence intensity F1, and the agonistic activity of the target compound on the potassium channel is determined therefrom. F2 and F1 are calculated as follows: […]
In order to determine whether a substance has agonistic activity, […]
for example, can be compared with […]
is determined by adding to the reaction batch only the buffer solution instead of the test substance, determining the value F1K of the fluorescence intensity, adding the potassium ions as described above, and measuring a value F2K of the fluorescence intensity. F2K and F1K are then calculated as follows: […]
A substance has an agonistic activity on the potassium channel when […]
Independently of the comparison of […]
it is possible to conclude that a target compound has agonistic activity if an increase in […]
is to be observed as the dosage of the target compound increases.
Calculations of EC50 and IC50 values are carried out with the aid of ‘Prism v4.0’ software (GraphPad Software™).

hKCNQ2/3 [3] = biological target: T1, hKCNQ2/3; assay: Voltage clamp (patch-clamp) measurements on stably transfected hKCNQ2/3 CHO-K1 cell line; type: cell-based; details: at -40 mV, relative to retigabine (10 μM) = 100%, read-out: patch-clamp % Efficacy @ 10 μM (retigabine = 100%)
Experimental: Voltage Clamp Measurements
In order to confirm a KCNQ2/3-agonistic action of the substances electro-physiologically, patch-clamp measurements (Hamill O P, Marty A, Neher E, Sakmann B, Sigworth F J.: Improved patch-clamp techniques for high-resolution current recording from cells and cell-free membrane patches, Pflugers Arch. 1981 August; 391(2):85-100) were carried out in voltage clamp mode on a stably transfected hKCNQ2/3 CHO-K1 cell line. After formation of the gigaseal, the cells were first clamped at a holding potential of −60 mV. Thereafter, depolarizing voltage jumps were applied up to a potential of +20 mV (increment: 20 mV, duration: 1 second) in order to confirm the functional expression of KCNQ2/3-typical currents. The testing of the substances was carried out at a potential of −40 mV. The increase in current induced by retigabine (10 μM) at −40 mV was first recorded as a positive control on each cell. After complete washing out of the retigabine effect (duration: 80 s), the test substance (10 μM) was applied. The increase in current induced by the test substance was standardized to the retigabine effect and indicated as the relative efficacy (see below).

[4] = CHO-K1, 10 μM, CHO-K1 cells expressing KCNQ2/3, Table 3, read-out: Fluorimetry % Efficacy @ 10 μM (reti-gabine = 100%)
[5] = CHO-K1 cells expressing KCNQ2/3, Table 3
[6] = 10 μM, comparison experiments table, read-out: Fluorimetry % Efficacy @ 10 μM (retigabine = 100%)

SMILES	Emax at 10 µM (hKCNQ2/3 [2]; [4]) [%]	EC50 (hKCNQ2/3 [2]; [5]) [µM]	also measured
O=C(CCC(=O)N1CCc2sccc2C1c1ccccc1)NCc1ccccc1C(F)(F)F (centres unmarked) [compound 17]	74	0.062	Formalin test rat i.v. % reduction in nociceptive behavior ([1]; dose 10.0 mg/kg): 15 (10.0) %
O=C(CCC(=O)N1CCc2sccc2C1c1cccs1)NCc1cccc(C(F)(F)F)c1 (centres unmarked) [compound 1]	168	1.69	Emax at 10 µM (hKCNQ2/3 [3]): 97%; Emax at 10 µM (hKCNQ2/3 [2]; [6]): 165%; EC50 (hKCNQ2/3 [2]; comparison experiments table): 0.76 µM
O=C(CCC(=O)N1CCc2sccc2C1C1CC1)NCc1cccc(C(F)(F)F)c1 (centres unmarked) [compound 260]	–	0.108	Emax at 10 µM (hKCNQ2/3 [3]): 91%; Formalin test rat i.v. % reduction in nociceptive behavior ([1]; dose 4.64 mg/kg): 46 (4.64) %
Cc1ccc(C2c3ccsc3CCN2C(=O)CCC(=O)NCc2ccccc2)cc1 (centres unmarked) [compound 48]	-15	–	–
Cc1cccc(C2c3ccsc3CCN2C(=O)CCC(=O)Nc2cccc3nsnc23)c1 (centres unmarked) [compound 52]	15	–	–
CC(C)C1c2ccsc2CCN1C(=O)CCC(=O)NCc1cccc(C(F)(F)F)c1 (centres unmarked) [compound 22]	139	1.22	–
COc1cccc(CNC(=O)CCC(=O)N2CCc3sccc3C2c2ccccc2)c1 (centres unmarked) [compound 15]	-46	–	–
O=C(CCC(=O)N1CCc2sccc2C1C1CCCC1)NCc1cccc(C(F)(F)F)c1 (centres unmarked) [compound 263]	–	0.16	–
Cc1cccc(C2c3ccsc3CCN2C(=O)CCC(=O)NCc2ccccn2)c1 (centres unmarked) [compound 54]	19	–	–
O=C(CCC(=O)N1CCc2sccc2C1c1ccccc1)NCCC1CCCCC1 (centres unmarked) [compound 245]	–	0.69	–
O=C(CCC(=O)N1CCc2sccc2C1c1ccccc1)NCCc1ccccc1 (centres unmarked) [compound 25]	12	–	–
Cc1cccc(C2c3ccsc3CCN2C(=O)CCC(=O)Nc2ccc3cnn(C)c3c2)c1 (centres unmarked) [compound 53]	28	–	–
Cc1scc2c1CCN(C(=O)CCC(=O)NCc1cccc(C(F)(F)F)c1)C2c1ccccc1 (centres unmarked) [compound 45]	39	0.311	–
Cc1ccc(C2c3ccsc3CCN2C(=O)CCC(=O)NCCc2ccccc2)cc1 (centres unmarked) [compound 49]	38	–	–
CCCCC1c2ccsc2CCN1C(=O)CCC(=O)NCc1cccc(C(F)(F)F)c1 (centres unmarked) [compound 23]	146	0.947	–
COc1ccc(NC(=O)CCC(=O)N2CCc3sccc3C2c2ccc(C)cc2)cc1 (centres unmarked) [compound 46]	35	–	–
O=C(CC(C(=O)N1CCc2sccc2C1)c1ccccc1)NCc1cccc(C(F)(F)F)c1 (centres unmarked) [compound 30]	-101	–	IC50 (hKCNQ2/3 [2]; [5]): 0.212 µM
C[C@H](CC(=O)NCc1cccc(C(F)(F)F)c1)C(=O)N1CCc2sccc2C1c1ccccc1 (some centres unmarked) [compound 34]	179	0.628	–

SMILES	Emax at 10 µM (hKCNQ2/3 [2]; [4]) [%]	EC50 (hKCNQ2/3 [2]; [5]) [µM]	also measured
Cc1cc2c(s1)CCN(C(=O)CCC(=O)NCc1cccc(C(F)(F)F)c1)C2c1ccccc1 (centres unmarked) [compound 10]	121	0.382	–
O=C(CCC(=O)N1CCc2ccsc2C1C1CCCCC1)NCc1cccc(C(F)(F)F)c1 (centres unmarked) [compound 275]	–	0.962	–
Cc1ccc(C2c3ccsc3CCN2C(=O)CCC(=O)Nc2ccc3cnn(C)c3c2)cc1 (centres unmarked) [compound 47]	37	–	–
O=C(CCC(=O)N1CCn2cccc2C1c1ccccc1)NCc1cccc(C(F)(F)F)c1 (centres unmarked) [Example No. 2 of WO 2008/046582, reference compound]	–	–	Formalin test rat i.v. @ 10 mg/kg % reduction in noiceptive behavior ([1]; 10 mg/kg, comparison experiments table): no effect; Emax at 10 µM (hKCNQ2/3 [2]; [6]): 115%; EC50 (hKCNQ2/3 [2]; comparison experiments table): 2.81 µM
O=C(CCC(=O)N1CCc2sccc2C1c1ccccc1)NCC1CCCCC1 (centres unmarked) [compound 247]	–	1.44	–
Cc1ccccc1C1c2ccsc2CCN1C(=O)CCC(=O)NCc1cccc(C(F)(F)F)c1 (centres unmarked) [compound 8]	148	0.079	Formalin test rat i.v. % reduction in nociceptive behavior ([1]; dose 4.64 mg/kg): 11 (4.64) %
Cc1ccc(C2c3ccsc3CCN2C(=O)CCC(=O)NCc2ccncc2)cc1 (centres unmarked) [compound 50]	10	–	–
O=C(CCC(=O)N1CCc2sccc2C1c1ccccc1)NCc1cccc(C(F)(F)F)c1 (centres unmarked) [compound 36]	–	0.707	–
COc1ccc(CNC(=O)CCC(=O)N2CCc3sccc3C2c2ccccc2)cc1 (centres unmarked) [compound 16]	21	–	–
Cc1cccc(CNC(=O)CCC(=O)N2CCc3sccc3C2c2ccccc2)c1 (centres unmarked) [compound 19]	-45	–	–
O=C(CCC(=O)N1CCc2sccc2C1CCCc1ccccc1)NCc1cccc(C(F)(F)F)c1 (centres unmarked) [compound 265]	–	0.596	–
O=C(CC(C(=O)N1CCc2sccc2C1c1ccccc1)c1ccccc1)NCc1cccc(C(F)(F)F)c1 (centres unmarked) [compound 29]	-45	–	IC50 (hKCNQ2/3 [2]; [5]): 0.133 µM
O=C(CCC(=O)N1CCc2sccc2C1c1ccccc1)N1CCc2ccc(C(F)(F)F)cc2C1 (centres unmarked) [compound 269]	–	0.519	–
O=C(CCC(=O)N1CCc2sccc2C1CCc1ccccc1)NCc1cccc(C(F)(F)F)c1 (centres unmarked) [compound 261]	–	0.084	–
O=C(CCC(=O)N1CCc2ccsc2C1c1ccccc1)NCc1cccc(C(F)(F)F)c1 (centres unmarked) [compound 9]	110	0.407	–
O=C(CCC(=O)N1CCc2sccc2C1c1ccccc1)NCc1cc(F)cc(C(F)(F)F)c1 (centres unmarked) [compound 41]	–	0.261	–
O=C(CCC(=O)N1CCc2sccc2C1c1ccc(F)cc1)NCc1cccc(C(F)(F)F)c1 (centres unmarked) [compound 7]	132	0.348	–
